Assays:
human LMPTP-A [1] = molecular target: T1, human LMPTP-A (Homo sapiens, UniProt P24666); test: LMPTP biochemical inhibition assay; conditions: for LMPTP potency, in words (Table 3 series): substitution of the benzyl substituent off the 3-position
T1 sequence (P24666 1-158): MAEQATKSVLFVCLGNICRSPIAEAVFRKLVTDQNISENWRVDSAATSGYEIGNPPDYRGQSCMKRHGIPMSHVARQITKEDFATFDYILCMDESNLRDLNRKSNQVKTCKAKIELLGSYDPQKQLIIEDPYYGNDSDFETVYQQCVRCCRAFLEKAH

VHR = conditions: HTS workflow; cited from earlier work
LYP = conditions: HTS workflow; cited from earlier work
Mouse pharmacokinetics = conditions: in vivo, iv, 2 mg/kg
human LMPTP-A [2] = molecular target: T1, human LMPTP-A
HepG2 hepatocytes = test: Insulin-stimulated AKT Thr308 phosphorylation in HepG2 hepatocytes; assay type: cell-based, human; conditions: 500 nM overnight, 10 nM insulin 5 min
diabetic DIO mice = test: DIO diabetes model; assay type: in vivo, mouse; conditions: 2 weeks
[3] = system: panel of PTPs (class I tyrosine-specific and dual-specific PTPs); conditions: 40 μM compound; no other PTP tested
[4] = 0.03% in HFD chow, 10 min after IP insulin

## Cc1cccc(C)c1Cn1cnc(N)c2ncnc1-2 [6f]
Human LMPTP-A [1]; benzyl substituent off the 3-position, compared with 2,6-bisubstitution
  fold loss in potency (LMPTP): 10 fold

## Nc1ncn(Cc2ccccc2)c2ncnc1-2 [6a]
Human LMPTP-A [1]
  LMPTP potency, in words (Table 3 series): decreased potency

## Clc1cccc(Cl)c1Cn1cnc(=NCc2ccco2)c2[nH]cnc21 [compound 2]
VHR
  selectivity for LMPTP over VHR: high selectivity
LYP
  selectivity for LMPTP over LYP: high selectivity

## Nc1ncn(Cc2ccc(Cl)cc2Cl)c2ncnc1-2 [6c]
Human LMPTP-A [1]
  LMPTP potency, in words (Table 3 series): decreased potency

## Nc1ncn(Cc2cccc(Cl)c2)c2ncnc1-2 [6d]
Human LMPTP-A [1]
  LMPTP potency, in words (Table 3 series): decreased potency

## Nc1ncn(Cc2ccccc2Cl)c2ncnc1-2 [6b]
Human LMPTP-A [1]
  LMPTP potency, in words (Table 3 series): decreased potency

## Cc1ccccc1-c1nc2c(N)ncn(Cc3c(Cl)cncc3Cl)c-2n1 [6h]
Human LMPTP-A [1]
  LMPTP potency, in words (Table 3 series): additional boost in potency
Mouse pharmacokinetics
  clearance at 24 h: 103 mL/min/kg

## Nc1ncn(Cc2ccc(Cl)cc2)c2ncnc1-2 [6e]
Human LMPTP-A [1]
  LMPTP potency, in words (Table 3 series): decreased potency

## Cc1ccccc1-c1nc2c(N)ncn(Cc3c(Cl)cccc3Cl)c-2n1 [5d]
Human LMPTP-A [2]
  mechanism of LMPTP inhibition: uncompetitive
Human LMPTP-A [2]; 20 nM human LMPTP-A, increasing OMFP
  potency at varying substrate concentrations: enhanced potency in the presence of increasing substrate
Mouse pharmacokinetics
  clearance at 24 h: 69 mL/min/kg

## Nc1ncn(Cc2c(Cl)cncc2Cl)c2ncnc1-2 [6g]
HepG2 hepatocytes
  HepG2 AKT Thr308 phosphorylation after insulin stimulation: substantially increased
Human LMPTP-A [2]
  mechanism of LMPTP inhibition: uncompetitive
Diabetic DIO mice; 0.03% in HFD chow (roughly 30 mg/kg/day)
  glucose tolerance (IPGTT): significantly improved
Diabetic DIO mice; 0.03% in HFD chow
  fasting insulin levels: decreased
Diabetic DIO mice; [4]
  insulin-stimulated phosphorylation of the IR activation motif in liver: increased
  phosphorylation of AKT Thr308 in liver: increased
Mouse pharmacokinetics
  clearance at 24 h: 18 mL/min/kg

## Nc1ncn(Cc2c(Cl)cccc2Cl)c2ncnc1-2 [compound 3]
[3]
  inhibition of other PTPs of the panel: < 50%
Human LMPTP-A [1]; compared with 2
  fold more potent than 2 (LMPTP): > 10 fold
Mouse pharmacokinetics
  clearance at 24 h: 5.8 mL/min/kg
